Reference: patent US20140243332A1, “METHODS OF TREATING CANCERS CHARACTERIZED BY ABERRENT ROS1 ACTIVITY” (Oregon Health & Science University, priority 2013, published 2014)
Several values for one entry are separate records, joined by “and”; a condition that tells them apart may be missing. Identical values can stand only once. Like-named read-outs stand apart in the source and are kept apart here. Values belong to the molecule of their own block, whether it stands above or below them.

What was measured:
HCC78 cells = experiment: Cell viability (MTS) assay, HCC78; type: cell-based, human; conditions: for HCC78 cell growth sensitivity to MET inhibitors: FIG. 6C
Method: (§1) The parental Ba/F3 cell line was cultured in RPMI 1640 medium with 10% FBS, L-glutamine, penicillin/streptomycin and 15% WEHI-conditioned media. Ba/F3 cell lines were maintained at densities of 0.5×10^6 to 1.5×10^6 per ml of media. FIG-ROS and SLC-ROS Ba/F3 lines were created by infecting the parental Ba/F3 with retrovirus expressing either human FIG-ROS-S (indicated FIG-ROS herein) or SLC-ROS-S (indicated SLC-ROS herein). Stable transfectant lines were sorted for GFP expression on a FACS Aria® flow cytometer. Cells were counted daily using Guava ViaCount® reagent and Guava Personal Cell Analysis® flow cytometer. […] Early passage NIH3T3 cells were infected with retrovirus expressing either FIG-ROS or SLC-ROS and sorted for GFP expression as described above for Ba/F3 cells. HCC78 cells were cultured in RPMI 1640 medium with 10% FBS, L-glutamine, and penicillin/streptomycin. This media is referred to as RPMI-10% FBS herein.

Ba/F3 ALK F1174L cells = Ba/F3 ALK F1174L cells (Homo sapiens, UniProt Q9UM73, F1174L, cells depend on it); experiment: Cell viability (MTS) assay, Ba/F3 ALK F1174L; type: cell-based; conditions: 72 hours, read-out: IC50 (the source's name)
Ba/F3 parental cells = experiment: Cell viability (MTS) assay, Ba/F3 parental; type: cell-based
Method: as §1
(§2) […]. The Ba/F3 parental line was also tested. (O'Dwyer M E and Druker B J, Lancet Oncology 1, 207-211 (2000); Walters D K et al, Cancer Cell 10, 65-75 (2006); and Heukamp L C et al, Science Translational Medicine 4, 141ra191 (2012); […].

Ba/F3 JAK3 A572V cells = Ba/F3 JAK3 A572V cells (Homo sapiens, UniProt P52333, A572V, cells depend on it); experiment: Cell viability (MTS) assay, Ba/F3 JAK3 A572V; type: cell-based; conditions: read-out: IC50 (insensitive/resistant up to stated concentration)
Chain of Ba/F3 JAK3 A572V cells (P52333 whole entry A572V): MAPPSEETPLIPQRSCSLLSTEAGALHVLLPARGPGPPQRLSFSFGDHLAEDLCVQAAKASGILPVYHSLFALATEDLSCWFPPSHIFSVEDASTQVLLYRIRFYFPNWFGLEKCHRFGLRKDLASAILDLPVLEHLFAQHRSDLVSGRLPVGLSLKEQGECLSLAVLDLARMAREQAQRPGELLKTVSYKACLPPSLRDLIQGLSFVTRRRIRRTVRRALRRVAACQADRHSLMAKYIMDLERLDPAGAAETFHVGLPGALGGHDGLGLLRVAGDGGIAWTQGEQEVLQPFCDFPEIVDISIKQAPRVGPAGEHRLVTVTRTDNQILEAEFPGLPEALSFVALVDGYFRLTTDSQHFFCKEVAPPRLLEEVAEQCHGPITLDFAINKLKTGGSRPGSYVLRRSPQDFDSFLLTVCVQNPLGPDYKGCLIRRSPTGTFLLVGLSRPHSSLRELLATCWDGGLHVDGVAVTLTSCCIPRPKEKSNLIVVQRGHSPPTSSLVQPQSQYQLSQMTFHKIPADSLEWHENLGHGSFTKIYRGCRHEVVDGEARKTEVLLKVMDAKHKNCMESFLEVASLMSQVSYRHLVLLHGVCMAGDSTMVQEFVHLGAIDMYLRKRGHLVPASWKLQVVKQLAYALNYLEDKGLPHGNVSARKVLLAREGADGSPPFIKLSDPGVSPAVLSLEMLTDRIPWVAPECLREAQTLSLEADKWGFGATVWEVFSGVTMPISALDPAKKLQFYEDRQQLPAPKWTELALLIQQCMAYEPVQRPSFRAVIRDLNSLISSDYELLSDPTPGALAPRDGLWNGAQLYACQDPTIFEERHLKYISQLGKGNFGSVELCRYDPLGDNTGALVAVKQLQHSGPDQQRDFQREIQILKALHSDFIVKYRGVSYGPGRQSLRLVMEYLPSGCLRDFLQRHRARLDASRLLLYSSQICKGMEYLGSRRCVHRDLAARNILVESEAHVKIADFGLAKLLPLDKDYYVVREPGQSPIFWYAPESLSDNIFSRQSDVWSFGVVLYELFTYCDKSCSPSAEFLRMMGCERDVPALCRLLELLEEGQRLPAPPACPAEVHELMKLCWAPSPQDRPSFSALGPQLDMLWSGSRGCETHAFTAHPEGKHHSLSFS

Ba/F3 Bcr-Abl cells = Ba/F3 Bcr-Abl cells (Homo sapiens, UniProt P00519); experiment: Cell viability (MTS) assay, Ba/F3 Bcr-Abl; type: cell-based; conditions: read-out: IC50 (insensitive/resistant up to stated concentration)
Ba/F3 FIG-ROS cells [1] = molecular target: T1, Ba/F3 FIG-ROS cells (Homo sapiens, UniProt P08922); experiment: Cell viability (MTS) assay, Ba/F3 FIG-ROS; type: cell-based; conditions: read-out: IC50 (50% growth inhibitory concentration); Ba/F3 FIG-ROS cells, 72 hours, MTS
T1 construct: fused on or other part: GFP is co-expressed from an IRES in pMIG and is not fused; Q9HD26 (Golgi-associated PDZ and coiled-coil motif-containing protein)
T1 sequence (P08922 whole entry, change not shown, the tested form may be a part): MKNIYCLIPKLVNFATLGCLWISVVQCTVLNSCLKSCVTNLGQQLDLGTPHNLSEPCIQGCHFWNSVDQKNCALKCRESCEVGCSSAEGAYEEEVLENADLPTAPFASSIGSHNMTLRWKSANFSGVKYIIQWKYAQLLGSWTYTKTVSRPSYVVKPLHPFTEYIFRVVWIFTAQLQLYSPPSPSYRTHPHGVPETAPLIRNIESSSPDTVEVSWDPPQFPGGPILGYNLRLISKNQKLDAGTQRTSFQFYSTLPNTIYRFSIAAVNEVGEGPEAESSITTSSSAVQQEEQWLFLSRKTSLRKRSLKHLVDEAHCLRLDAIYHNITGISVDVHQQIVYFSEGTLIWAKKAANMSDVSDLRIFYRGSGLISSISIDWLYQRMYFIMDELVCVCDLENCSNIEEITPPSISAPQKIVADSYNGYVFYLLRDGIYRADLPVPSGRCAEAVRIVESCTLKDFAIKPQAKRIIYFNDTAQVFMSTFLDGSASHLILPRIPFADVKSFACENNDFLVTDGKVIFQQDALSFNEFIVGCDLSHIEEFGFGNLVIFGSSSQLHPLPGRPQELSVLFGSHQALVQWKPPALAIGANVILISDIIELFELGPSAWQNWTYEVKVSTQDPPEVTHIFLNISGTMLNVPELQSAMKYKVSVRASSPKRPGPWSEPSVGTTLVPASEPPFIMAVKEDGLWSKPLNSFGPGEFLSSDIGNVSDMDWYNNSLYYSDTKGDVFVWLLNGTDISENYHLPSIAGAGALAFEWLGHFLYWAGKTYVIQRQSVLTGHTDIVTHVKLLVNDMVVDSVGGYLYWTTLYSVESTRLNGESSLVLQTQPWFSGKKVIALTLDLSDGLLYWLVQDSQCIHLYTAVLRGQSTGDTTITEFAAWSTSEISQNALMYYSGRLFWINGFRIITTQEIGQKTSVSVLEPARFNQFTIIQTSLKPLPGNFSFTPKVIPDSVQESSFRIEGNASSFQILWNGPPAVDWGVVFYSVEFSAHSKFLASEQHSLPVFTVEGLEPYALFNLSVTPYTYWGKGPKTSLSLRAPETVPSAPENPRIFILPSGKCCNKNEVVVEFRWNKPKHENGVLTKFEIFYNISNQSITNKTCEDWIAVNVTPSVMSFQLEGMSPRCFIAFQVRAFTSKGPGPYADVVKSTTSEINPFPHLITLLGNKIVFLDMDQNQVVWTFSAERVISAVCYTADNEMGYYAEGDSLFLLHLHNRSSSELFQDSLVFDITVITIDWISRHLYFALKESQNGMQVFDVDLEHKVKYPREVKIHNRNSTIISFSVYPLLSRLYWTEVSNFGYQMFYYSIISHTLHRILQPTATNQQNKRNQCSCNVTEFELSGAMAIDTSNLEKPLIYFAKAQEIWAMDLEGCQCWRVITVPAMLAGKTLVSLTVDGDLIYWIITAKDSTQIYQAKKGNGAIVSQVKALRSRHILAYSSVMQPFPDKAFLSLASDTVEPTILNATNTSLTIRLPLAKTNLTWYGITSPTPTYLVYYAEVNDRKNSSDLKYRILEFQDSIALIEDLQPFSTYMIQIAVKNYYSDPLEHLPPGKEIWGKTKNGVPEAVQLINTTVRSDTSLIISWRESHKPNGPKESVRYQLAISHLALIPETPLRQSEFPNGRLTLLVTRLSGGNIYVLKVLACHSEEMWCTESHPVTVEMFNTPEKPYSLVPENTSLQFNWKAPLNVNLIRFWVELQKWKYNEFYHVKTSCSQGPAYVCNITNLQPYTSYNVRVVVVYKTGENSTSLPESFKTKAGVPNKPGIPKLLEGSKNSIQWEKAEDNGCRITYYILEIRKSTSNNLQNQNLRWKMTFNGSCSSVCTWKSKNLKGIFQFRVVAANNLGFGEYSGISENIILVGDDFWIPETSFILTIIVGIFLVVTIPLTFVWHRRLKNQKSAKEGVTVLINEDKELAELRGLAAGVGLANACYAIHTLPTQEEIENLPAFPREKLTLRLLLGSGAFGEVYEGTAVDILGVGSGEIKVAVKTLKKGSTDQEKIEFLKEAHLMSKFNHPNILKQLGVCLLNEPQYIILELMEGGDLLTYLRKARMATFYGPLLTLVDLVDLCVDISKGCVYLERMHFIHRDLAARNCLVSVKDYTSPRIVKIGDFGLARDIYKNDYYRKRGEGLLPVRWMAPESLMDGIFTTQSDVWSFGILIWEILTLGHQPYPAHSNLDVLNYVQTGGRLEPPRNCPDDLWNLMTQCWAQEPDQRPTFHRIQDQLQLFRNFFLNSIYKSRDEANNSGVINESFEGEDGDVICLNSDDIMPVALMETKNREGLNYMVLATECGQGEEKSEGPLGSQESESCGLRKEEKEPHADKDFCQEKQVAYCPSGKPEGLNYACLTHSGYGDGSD
Excerpt: as §1, with “Ba/F3” for “The parental Ba/F3 cell line was cultured in RPMI 1640 medium with 10% FBS, L-glutamine, penicillin/streptomycin and 15% WEHI-conditioned media. Ba/F3”, “HCC78 cells were cultured in RPMI 1640 medium with 10% FBS, L-glutamine, and penicillin/streptomycin.” left out
The FIG-ROS-S (FIG-ROS) fusion protein has been reported in non-small cell lung cancers (NSCLC), glioblastomas, and cholangiocarcinomas.

Ba/F3 SLC-ROS cells [2] = molecular target: T2, Ba/F3 SLC-ROS cells (Homo sapiens, UniProt P08922); experiment: Cell viability (MTS) assay, Ba/F3 SLC-ROS; type: cell-based; conditions: 72 hours, read-out: IC50 (the source's name)
T2 construct: SLC-ROS-S (SLC-ROS) was cloned from cDNA made from HCC78 cells; fused on or other part: GFP is co-expressed from an IRES in pMIG and is not fused; O95436 (Sodium-dependent phosphate transport protein 2B)
T2 sequence (P08922 whole entry, change not shown, the tested form may be a part): as above
Method: as §1, §2

HCC4011 cells = experiment: Cell viability assay, HCC4011; type: cell-based, human; conditions: HCC4011 cells (activated EGFR), FIG. 6B
Method: (§3) IC50 was determined from non-linear regression curve fit analysis of the dose response curves.

PC9 cells = experiment: Cell viability assay, PC9; type: cell-based, human; conditions: PC9 cells (activated EGFR), FIG. 6B
Method: as §3

[3] = test system: FIG-ROS cholangiocarcinoma tumor cells; experiment: Anchorage-independent colony formation in soft agar, FIG-ROS cholangiocarcinoma cells; type: cell-based, murine; conditions: dose dependent
Excerpt: […]. The values indicate the mean and the error bars indicate the standard error of the mean of 3 independent wells.
(§4) . The inhibition was dose dependent (FIG. 2B). […].

FIG-ROS tumors = experiment: In vivo treatment of mice bearing subcutaneous FIG-ROS cholangiocarcinoma tumors; conditions: 25 mg/kg oral gavage once daily, 9 days, immunodeficient mice; foretinib p<0.0001 for Lines 4 and 6
SLC-ROS = SLC-ROS (Homo sapiens, UniProt P08922); experiment: Immunoblot of Ba/F3 SLC-ROS lysates; type: cell-based; set-up: SLC34A2 N-terminal portion, fusion partner; expressed in transfected cells; host or cells: Ba/F3 (A15), retroviral pMIG; the other entry of the earlier key: SLC34A2 (O95436, Sodium-dependent phosphate transport protein 2B); conditions: Ba/F3 SLC-ROS cells, increasing amounts, immunoblot FIG. 1C
Chain of SLC-ROS (P08922 with tags, fused parts or gaps): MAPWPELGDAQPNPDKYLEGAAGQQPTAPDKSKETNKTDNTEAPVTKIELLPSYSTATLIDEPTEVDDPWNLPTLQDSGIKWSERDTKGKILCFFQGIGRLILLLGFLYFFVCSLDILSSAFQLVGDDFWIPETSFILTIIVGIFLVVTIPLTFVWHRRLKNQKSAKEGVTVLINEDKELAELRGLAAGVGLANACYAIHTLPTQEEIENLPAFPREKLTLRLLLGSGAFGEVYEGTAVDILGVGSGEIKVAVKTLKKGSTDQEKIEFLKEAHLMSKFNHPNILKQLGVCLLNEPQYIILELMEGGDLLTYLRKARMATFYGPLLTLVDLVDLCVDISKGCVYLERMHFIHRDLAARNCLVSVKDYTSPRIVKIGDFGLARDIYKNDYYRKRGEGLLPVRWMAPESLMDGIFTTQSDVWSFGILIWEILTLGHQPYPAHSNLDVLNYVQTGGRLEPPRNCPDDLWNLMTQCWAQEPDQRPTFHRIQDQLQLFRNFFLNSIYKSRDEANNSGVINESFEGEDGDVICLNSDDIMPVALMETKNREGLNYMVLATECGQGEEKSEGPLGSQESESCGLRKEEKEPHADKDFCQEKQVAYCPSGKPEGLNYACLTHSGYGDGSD
Method: (§5) FIG. 1C is an image of an immunoblot of lysates of Ba/F3 FIG-ROS and Ba/F3 SLC-ROS and the indicated downstream effectors after treatment with the indicated compounds. Images shown are representative of three independent experiments.
(§6) Ba/F3 FIG-ROS, Ba/F3 SLC-ROS, HCC78 and mCC cell lines were treated with the indicated concentration of inhibitors for 1-2 hours. […] The protein content of the cell lysates was determined and lysates were either used for immunoprecipitation where indicated or extracted with SDS Sample buffer for 15 minutes at 80° C. Proteins were transferred to Immobilon-FL membranes and immunoblotted with antibodies specific for phospho-ROS1 (Cell Signaling Technology (CST) #3078), total ROS1 (CST #3266), phopsho-Shp2 (CST #3751), total Shpt (CST #3752), phospho-Stat3 (CST #9145), total Stat3 (CST #4904), phospho-Erk1/2 (CST #9101), total Erk2 (Santa Cruz #SC-1647), phospho-S6 (CST #4858), total S6 (CST #2216), phospho-Src (CST #2105), total Src (CST #2110), α-tubulin (Sigma T6199), or β-actin (Sigma A1978) as indicated. Images of the blots were generated by the LI-COR Odyssey® imaging system, following the manufacturer's protocol for immunoblot detection with use of IR-dye conjugated secondary antibodies.

[4] = test system: shPten murine cholangiocarcinoma tumor cells; experiment: cells; conditions: Mus musculus, read-out: IC50 cell growth
Method: (§7) Hepatoblasts of the genotype AlbCre^+/−; Isl Kras^G12D+/−; p53^R172H/loxp were isolated from ED14.5 mouse embryos and retrovirally transduced with either the FIG-ROS fusion, turbo RFP or a short hairpin RNA against Pten (shPten.1522). At 48 hours following transduction, 1×10^6 cells were resuspended in 25 μl Matrigel and injected sub-capsular into the livers of immune-deficient mice. Upon tumor formation, tumors were explanted and subjected to collagenase digestion. Digests were plated onto gelatin-coated plates. Tumor cells were enriched by either differential trypsinization or cell sorting. […] These four cell lines were further cultured and maintained in DMEM-High glucose medium supplemented with 10% FCS, L-glutamine and penicillin/streptomycin.
(§8) Cell lines were distributed in 96-well plates and incubated with the indicated concentrations of inhibitor for 72 hours. […] Ba/F3 cell lines were plated at 4×10^3 cells/well. HCC78 and mCC cell lines were plated at 1.5×10^3 cells/well. All cell types were seeded in a final volume of 80 microliters. A 20 microliter volume of five-fold concentrated inhibitor media was added. Cell proliferation was measured using a […] viability assay (CellTiter96 Aqueous One® Solution; Promega). A BioTek Synergy 2® plate reader was used to read the absorbance at 490 nm at 30 minutes and 1 hour after addition of MTS. To facilitate comparison between experiments, the raw MTS absorbance of vehicle (0.1% DMSO) treated cells was set to 1 and absorbance from inhibitor treated wells was normalized to the vehicle treated value. […] Data were normalized using Microsoft Excel® and further non-linear regression curve fit analysis of the normalized data for determination of IC50 was performed using Graphpad Prism® software.
(§9) To directly assess inhibition of FIG-ROS phosphorylation, immunoblot analyses of lysates from vehicle or inhibitor-treated cells were performed.

[5] = test system: FIG-ROS murine cholangiocarcinoma tumor cells; experiment: cells; conditions: Mus musculus, read-out: IC50 cell growth
Method: as §7, §8, §9

FIG-ROS [6] = molecular target: T3, FIG-ROS (Homo sapiens, UniProt P08922); experiment: Immunoblot of Ba/F3 FIG-ROS lysates; type: cell-based; set-up: expressed in transfected cells; host or cells: Ba/F3 (A14), retroviral pMSCV-IRES-GFP; the other entry of the earlier key: GOPC (Q9HD26, Golgi-associated PDZ and coiled-coil motif-containing protein); conditions: Ba/F3 FIG-ROS cells, increasing amounts, immunoblot FIG. 1C
T3 sequence (P08922 with tags, fused parts or gaps): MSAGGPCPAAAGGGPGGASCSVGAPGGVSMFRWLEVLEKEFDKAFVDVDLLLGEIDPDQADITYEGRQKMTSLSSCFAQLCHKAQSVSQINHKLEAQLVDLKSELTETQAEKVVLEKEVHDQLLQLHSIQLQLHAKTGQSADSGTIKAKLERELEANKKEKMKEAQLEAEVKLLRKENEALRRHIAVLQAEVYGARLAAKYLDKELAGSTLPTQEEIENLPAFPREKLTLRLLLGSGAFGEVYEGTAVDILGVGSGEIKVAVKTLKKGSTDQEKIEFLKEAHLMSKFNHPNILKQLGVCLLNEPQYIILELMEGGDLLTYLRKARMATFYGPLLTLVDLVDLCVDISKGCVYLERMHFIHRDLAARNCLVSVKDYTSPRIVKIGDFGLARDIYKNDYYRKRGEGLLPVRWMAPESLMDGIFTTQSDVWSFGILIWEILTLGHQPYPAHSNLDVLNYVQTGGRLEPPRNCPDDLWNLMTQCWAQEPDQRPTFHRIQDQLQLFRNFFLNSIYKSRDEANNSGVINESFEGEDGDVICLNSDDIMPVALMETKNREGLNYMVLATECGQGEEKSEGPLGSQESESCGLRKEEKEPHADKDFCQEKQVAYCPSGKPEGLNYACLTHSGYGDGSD
Method: as §5, §6

FIG-ROS [7] = molecular target: T3, FIG-ROS; experiment: Immunoblot of FIG-ROS murine cholangiocarcinoma cell lysates; type: cell-based; set-up: expressed in transfected cells; host or cells: murine cholangiocarcinoma tumour cell lines (lines 3 and 4) derived from transduced mouse hepatoblasts; the other entry of the earlier key: GOPC (Q9HD26, Golgi-associated PDZ and coiled-coil motif-containing protein); conditions: 100 nM, FIG-ROS murine cholangiocarcinoma cells
Method: […]. Images shown are representative of three independent experiments.
as §6, §4

[8] = test system: ENU-treated Ba/F3 FIG-ROS cells; experiment: Accelerated cell-based (ENU) mutagenesis screen, outgrowth of Ba/F3 FIG-ROS clones
Ba/F3 SLC-ROS cells [9] = molecular target: T2, Ba/F3 SLC-ROS cells; experiment: Apoptosis induction (Annexin V / 7-AAD), Ba/F3 SLC-ROS; type: cell-based; conditions: 15 nM, 48 hours
Method: (§10) FIG. 5A is a set of three bar graphs depicting the induction of apoptosis in Ba/F3 FIG-ROS, Ba/F3 SLC-ROS and Ba/F3 ALK F1174L cells after 48 hours of treatment with the indicated doses of the indicated compounds. The number of cells that were Annexin V and 7-AAD positive after inhibitor treatment was normalized to number of cells staining positive with these markers with vehicle treatment (basal). A minimum of 2000 cells were counted per condition. Rate of apoptosis is shown as fold over basal. Basal apoptosis in Ba/F3 FIG-ROS, Ba/F3 SLC-ROS and Ba/F3 ALK F1174 cells was 3.6%, 2.8% and 1.2% respectively.

Ba/F3 FIG-ROS cells [10] = molecular target: T1, Ba/F3 FIG-ROS cells; experiment: Apoptosis induction (Annexin V / 7-AAD), Ba/F3 FIG-ROS; type: cell-based; conditions: 15 nM, 48 hours
Method: as §10

[11] = Mus musculus, BaF3, Ba/F3 parental cells, read-out: IC50 (insensitive/resistant up to stated concentration)

Compound: Cn1cc(-c2ccc3nnc(C(F)(F)c4ccc5ncccc5c4)n3n2)cn1 [JNJ38877605]
HCC78 cell growth sensitivity to MET inhibitors (HCC78 cells): resistant

Compound: Cn1cc(-c2ccc3nnc(Sc4ccc5ncccc5c4)n3n2)cn1 [SGX-523]
HCC78 cell growth sensitivity to MET inhibitors (HCC78 cells): resistant

Compound: CNC(=O)c1c(F)cccc1Nc1nc(Nc2cc3c(cc2OC)CCN3C(=O)CN(C)C)nc2[nH]ccc12 [GSK1838705A]
GI50 (Ba/F3 ALK F1174L cells): 10 nM
IC50 (Ba/F3 parental cells; Ba/F3 parental cells, read-out: IC50 (insensitive/resistant up to stated concentration)): > 10000 nM
GI50 (Ba/F3 JAK3 A572V cells): > 10000 nM
GI50 (Ba/F3 Bcr-Abl cells): > 10000 nM
GI50 (Ba/F3 FIG-ROS cells [1]): 250 nM
GI50 (Ba/F3 SLC-ROS cells [2]): 1000 nM

Compound: C#Cc1cccc(Nc2ncnc3cc(OCCOC)c(OCCOC)cc23)c1 [erlotinib]
sensitivity of cell growth (HCC4011 cells): sensitive
sensitivity of cell growth (PC9 cells): sensitive

autophosphorylation of SLC-ROS and ROS1-driven signaling (phospho-Shp2, phospho-ERK1/2) (SLC-ROS): dose dependent decrease
IC50 (HCC78 cells; Homo sapiens, 72 hour exposure, read-out: IC50 HCC78 cell growth): 2200 nM
autophosphorylation of FIG-ROS and ROS1-driven signaling (phospho-Shp2, phospho-ERK1/2) (FIG-ROS [6]): dose dependent decrease
auto-phosphorylation of FIG-ROS and phosphorylation of Shpt and ERK1/2 (FIG-ROS [7]): more moderate effect
Compound: C[C@@H](Oc1cc(-c2cnn(C3CCNCC3)c2)cnc1N)c1c(Cl)ccc(F)c1Cl [crizotinib]
anchorage-independent colonies in soft agar [3]: inhibited
FIG-ROS tumor volume (FIG-ROS tumors): moderate but statistically insignificant effect
IC50 (Ba/F3 parental cells; Mus musculus, BaF3, read-out: IC50 (insensitive/resistant up to stated concentration)): > 2000 nM
IC50 [4]: > 2000 nM
IC50 [5]: 690 nM
sensitivity of cell growth (HCC4011 cells): relatively insensitive
sensitivity of cell growth (PC9 cells): relatively insensitive
frequency of outgrowth of clones ([8]; 500 nM crizotinib): 40%
outgrowth of clones ([8]; 2000 and 2500 nM crizotinib): no outgrowth of clones

autophosphorylation of SLC-ROS and ROS1-driven signaling (phospho-Shp2, phospho-ERK1/2) (SLC-ROS): dose dependent decrease
autophosphorylation of FIG-ROS and ROS1-driven signaling (phospho-Shp2, phospho-ERK1/2) (FIG-ROS [6]): dose dependent decrease
Compound: COc1cc(N2CCC(N3CCN(C)CC3)CC2)ccc1Nc1ncc(Cl)c(Nc2ccccc2S(=O)(=O)C(C)C)n1 [TAE684]
IC50 (Ba/F3 parental cells; [11]): > 2000 nM
GI50 (Ba/F3 FIG-ROS cells [1]): 2 nM and 1.8 nM
GI50 (Ba/F3 SLC-ROS cells [2]): 28 nM

apoptosis induction (Ba/F3 SLC-ROS cells [9]): induced apoptosis
apoptosis induction (Ba/F3 FIG-ROS cells [10]): induced apoptosis
autophosphorylation of SLC-ROS and ROS1-driven signaling (phospho-Shp2, phospho-ERK1/2) (SLC-ROS): dose dependent decrease
autophosphorylation of FIG-ROS and ROS1-driven signaling (phospho-Shp2, phospho-ERK1/2) (FIG-ROS [6]): dose dependent decrease
Compound: Cn1c2ccccc2c2c3c(c4c5ccccc5n(CCC#N)c4c21)CNC3=O [Gö6976, 12-(2-cyanoethyl)-6,7,12,13-tetrahydro-13-methyl-5-oxo-5H-indolo(2,3-a)pyrrolo(3,4-c)-carbazole]
IC50 (Ba/F3 parental cells; [11]): > 2000 nM
GI50 (Ba/F3 FIG-ROS cells [1]): 1.4 nM
